Calls of active or inactive are those of the source. No cut-off for these calls is given here.
Columns and labels:
Raji [1] = experiment: Antiproliferative activity against human Raji cells assessed as inhibition of cell growth incubated for 48 hrs by CCK-8 assay; assay type: functional, cell-based
Daudi [2] = experiment: Induction of cell cycle arrest in human Daudi cells assessed as accumulation of cells at G0/G1 phase at 3 uM incubated for 24 hrs by PI staining based flow cytometry analysis (reference value: 24.28%); assay type: functional
Daudi [3] = experiment: Induction of cell cycle arrest at G0/G1 phase in human Daudi cells assessed as downregulation of CDK2 protein expression at 0.75 to 3 uM incubated for 24 to 48 hrs by Western blot analysis; assay type: functional, cell-based; conditions: dose 0.75-3 µM, time 24-48 hrs
Daudi [4] = experiment: Induction of cell cycle arrest at G0/G1 phase in human Daudi cells assessed as upregulation of p21 protein expression at 0.75 to 3 uM incubated for 24 to 48 hrs by Western blot analysis; assay type: functional, cell-based; conditions: dose 0.75-3 µM, time 24-48 hrs
Raji [5] = experiment: Induction of cell cycle arrest at G0/G1 phase in human Raji cells assessed as downregulation of CDK2 protein expression at 1.25 to 5 uM incubated for 24 to 48 hrs by Western blot analysis; assay type: functional, cell-based; conditions: dose 1.25-5 µM, time 24-48 hrs
Daudi [6] = experiment: Induction of cell cycle arrest in human Daudi cells assessed as G2 phase cells at 3 uM incubated for 24 hrs by PI staining based flow cytometry analysis (reference value: 25.92%); assay type: functional
Raji [7] = experiment: Induction of cell cycle arrest in human Raji cells assessed as S phase cells at 5 uM incubated for 48 hrs by PI staining based flow cytometry analysis (reference value: 69.78%); assay type: functional
Daudi [8] = experiment: Induction of apoptosis in human Daudi cells assessed as upregulation of cleaved caspase-3 expression at 0.75 to 3 uM incubated for 24 hrs by Western blot analysis; assay type: functional, cell-based; conditions: dose 0.75-3 µM
Daudi [9] = experiment: Induction of apoptosis in human Daudi cells assessed as downregulation of Mcl-1 expression at 0.75 to 3 uM incubated for 24 hrs by Western blot analysis; assay type: functional, cell-based; conditions: dose 0.75-3 µM
Daudi [10] = experiment: Induction of apoptosis in human Daudi cells assessed as upregulation of cytochrome C expression at 0.75 to 3 uM incubated for 24 hrs by Western blot analysis; assay type: functional, cell-based; conditions: dose 0.75-3 µM
Raji [11] = experiment: Induction of apoptosis in human Raji cells assessed as upregulation of cleaved caspase-3 expression at 1.25 to 5 uM incubated for 24 hrs by Western blot analysis; assay type: functional, cell-based; conditions: dose 1.25-5 µM
Raji [12] = experiment: Induction of apoptosis in human Raji cells assessed as downregulation of BCL-XL expression at 1.25 to 5 uM incubated for 24 hrs by Western blot analysis; assay type: functional, cell-based; conditions: dose 1.25-5 µM
Raji [13] = experiment: Induction of apoptosis in human Raji cells assessed as effect on Bax protein expression at 1.25 to 5 uM incubated for 24 hrs by Western blot analysis; assay type: functional, cell-based; conditions: dose 1.25-5 µM
Raji [14] = experiment: Induction of apoptosis in human Raji cells assessed as effect on caspase-8 protein expression at 1.25 to 5 uM incubated for 24 hrs by Western blot analysis; assay type: functional, cell-based; conditions: dose 1.25-5 µM
Raji [15] = experiment: Induction of apoptosis in human Raji cells assessed as effect on cleaved caspase-8 protein expression at 1.25 to 5 uM incubated for 24 hrs by Western blot analysis; assay type: functional, cell-based; conditions: dose 1.25-5 µM
Daudi [16] = experiment: Induction of apoptosis in human Daudi cells assessed as nuclear condensation incubated for 24 hrs by Hoechst 33258/PI staining based fluorescence microscopic analysis; assay type: functional, cell-based; conditions: dose 0.75-3 µM
Daudi [17] = experiment: Induction of apoptosis in human Daudi cells assessed as nuclear fragmentation incubated for 24 hrs by Hoechst 33258/PI staining based fluorescence microscopic analysis; assay type: functional, cell-based; conditions: dose 0.75-3 µM
Daudi [18] = experiment: Induction of mitochondrial dysfunction in human Daudi cells assessed as decrease in ATP content incubated for 24 hrs by CellTiter-Lumi […] assay; assay type: functional, cell-based; conditions: dose 0.75-3 µM
Daudi [19] = experiment: Induction of mitochondrial dysfunction in human Daudi cells assessed as decrease in ATP-5H protein expression at 1.5 to 3 uM incubated for 48 hrs by Western blot analysis; assay type: functional, cell-based; conditions: dose 1.5-3 µM
Daudi [20] = experiment: Induction of mitochondrial respiratory chain damage in human Daudi cells assessed as decrease in CYC1 protein expression at 1.5 to 3 uM incubated for 48 hrs by Western blot analysis; assay type: functional, cell-based; conditions: dose 1.5-3 µM
Daudi [21] = experiment: Effect on total PI3K protein level in human Daudi cells at 0.75 to 3 uM incubated for 24 hrs by Western blot analysis; assay type: functional, cell-based; conditions: dose 0.75-3 µM
Daudi [22] = experiment: Effect on total AKT protein level in human Daudi cells at 0.75 to 3 uM incubated for 24 hrs by Western blot analysis; assay type: functional, cell-based; conditions: dose 0.75-3 µM
Daudi [23] = experiment: Effect on total mTOR protein level in human Daudi cells at 0.75 to 3 uM incubated for 24 hrs by Western blot analysis; assay type: functional, cell-based; conditions: dose 0.75-3 µM
[24] = Inhibition of PI3K/AKT/mTOR signalling pathway in human Daudi cells assessed as inhibition of AKT phosphorylation at […] residue incubated for 24 hrs by Western blot analysis; assay type: cell-based; conditions: dose 0.75-3 µM
Raji [25] = experiment: Effect on total mTOR protein level in human Raji cells at 1.25 to 5 uM incubated for 24 hrs by Western blot analysis; assay type: functional, cell-based; conditions: dose 1.25-5 µM
[26] = Inhibition of PI3K/AKT/mTOR signalling pathway in human Raji cells assessed as inhibition of PI3K phosphorylation incubated for 24 hrs by Western blot analysis; assay type: cell-based; conditions: dose 1.25-5 µM
[27] = Inhibition of PI3K/AKT/mTOR signalling pathway in human Daudi cells assessed as increase in ratio of PI3K phosphorylation to total PI3K protein level at 3 uM incubated for 12 hrs in the presence of YS49 by Western blot analysis; assay type: cell-based
[28] = Inhibition of PI3K/AKT/mTOR signalling pathway in human Daudi cells assessed as increase in ratio of mTOR phosphorylation to total mTOR protein level at 3 uM incubated for 12 hrs in the presence of YS49 by Western blot analysis; assay type: cell-based
[29] = Inhibition of PI3K/AKT/mTOR signalling pathway in human Raji cells assessed as increase in ratio of AKT phosphorylation at […] residue to total AKT protein level at 5 uM incubated for 12 hrs in the presence of YS49 by Western blot analysis; assay type: cell-based
Daudi [30] = experiment: Induction of apoptosis in human Daudi cells assessed as early apoptotic cells at 3 uM incubated for 24 hrs by Annexin V-FITC/PI staining based flow cytometric analysis (reference value: 1.7%); assay type: functional
Daudi [31] = experiment: Induction of apoptosis in human Daudi cells assessed as late apoptotic cells at 3 uM incubated for 24 hrs by Annexin V-FITC/PI staining based flow cytometric analysis (reference value: 0.0%); assay type: functional
Daudi [32] = experiment: Induction of apoptosis in human Daudi cells assessed as viable cells at 3 uM incubated for 24 hrs in the presence of YS49 by Annexin V-FITC/PI staining based flow cytometric analysis (reference value: 97.2%); assay type: functional; conditions: read-out: Activity
Daudi [33] = experiment: Induction of apoptosis in human Daudi cells assessed as late apoptotic cells at 3 uM incubated for 24 hrs in the presence of YS49 by Annexin V-FITC/PI staining based flow cytometric analysis (reference value: 0.0%); assay type: functional
Raji [34] = experiment: Induction of apoptosis in human Raji cells assessed as early apoptotic cells at 5 uM incubated for 24 hrs by Annexin V-FITC/PI staining based flow cytometric analysis (reference value: 0.8%); assay type: functional
Raji [35] = experiment: Induction of apoptosis in human Raji cells assessed as necrotic cells at 5 uM incubated for 24 hrs by Annexin V-FITC/PI staining based flow cytometric analysis (reference value: 1.5%); assay type: functional

SMILES: COc1c(OC)c2c3c(nccc3c1-c1cc(C)cc(C)c1)C(c1cc(C)cc(C)c1)=CN2
- IC50 (Raji [1]): 2070 nM
- Activity (Daudi [2]): 49.7%
- Activity (Daudi [3]): Active
- Activity (Daudi [4]): Active
- Activity (Raji [5]): Active
- Activity (Daudi [6]): 20.27%
- Activity (Raji [7]): 49.74%
- Activity (Daudi [8]): Active
- Activity (Daudi [9]): Active
- Activity (Daudi [10]): Active
- Activity (Raji [11]): Active
- Activity (Raji [12]): Active
- Activity (Raji [13]): inactive
- Activity (Raji [14]): inactive
- Activity (Raji [15]): inactive
- Activity (Daudi [16]): Dose-Dependent Effect
- Activity (Daudi [17]): Dose-Dependent Effect
- Activity (Daudi [18]): Dose-Dependent Effect
- Activity (Daudi [19]): Active
- Activity (Daudi [20]): Active
- Activity (Daudi [21]): inactive
- Activity (Daudi [22]): inactive
- Activity (Daudi [23]): inactive
- inhibition [24]: Dose-Dependent Effect
- Activity (Raji [25]): inactive
- inhibition [26]: Dose-Dependent Effect
- inhibition [27]: inactive
- inhibition [28]: inactive
- inhibition [29]: inactive
- Activity (Daudi [30]): 18.6%
- Activity (Daudi [31]): 5.4%
- viability at 3 µM (Daudi [32]): 80.2%
- Activity (Daudi [33]): 1.5%
- Activity (Raji [34]): 21.7%
- Activity (Raji [35]): 17%

Reference: ChEMBL document CHEMBL5226361, “Marine Sponge-Derived Alkaloid Induces Mitochondrial Dysfunction and Inhibits the PI3K/AKT/mTOR Signaling Pathway against Burkitt's Lymphoma” (J Nat Prod, 2023)
